Assay results from patent US10882869B2, “Condensed heterocyclic compounds and pesticides” (NISSAN CHEMICAL CORPORATION, priority 2015, dated 2021).

Assays:
[1] = tested on: Nilaparvata lugens; experiment: Insecticidal test on Nilaparvata lugens (rice sheaths soaked); assay type: in vivo; settings: 144 h, 500 ppm solution, 3rd-instar larvae, 6 days after, 25° C.
Procedure: Rice sheaths were soaked in the solutions for about 10 seconds. After the soaking, the rice sheaths were dried in air and put in test tubes. In each tube, five 3rd-instar larvae of Nilaparvata lugens were released, and the tubes were capped with sponge and placed in an incubator at 25° C. 6 Days after, dead insects in the test tubes were counted, and the mortality (%) (the number of dead insects÷the number of released insects×100) was calculated. The test was carried out in duplicate.

[2] = tested on: Plutella xylostella; experiment: Insecticidal test on Plutella xylostella (cabbage leaves soaked); assay type: in vivo; settings: 144 h, 500 ppm solution, 3rd-instar larvae, 6 days after, 25° C.
[3] = tested on: Spodoptera litura; experiment: Insecticidal test on Spodoptera litura (cabbage leaves soaked); assay type: in vivo; settings: 144 h, 500 ppm solution, 3rd-instar larvae, 6 days after, 25° C.
[4] = tested on: Myzus persicae; experiment: Insecticidal test on Myzus persicae (cabbage leaf spray); assay type: in vivo; settings: 144 h, 500 ppm solution sprayed (2.5 mg/cm^2), apterous adults on cabbage leaves, 6 days after, 25° C.
Procedure: Wet absorbent cotton was laid on glass dishes having an inner diameter of 3 cm, and covered with leaves of cabbage cut into circles of the same diameter, and 4 apterous adults of Myzus persicae were released. […] The solutions were sprayed from a rotary spray tower (2.5 mg/cm^2), and the dishes were covered with lids and placed in an incubator at 25° C. 6 Days after, dead insects were counted, and the mortality was calculated by using the same equation as in Test Example 1. The test was carried out in duplicate.

[5] = tested on: Bemisia argentifolii; experiment: Insecticidal test on Bemisia argentifolii (kidney bean leaf spray); assay type: in vivo; settings: 120 h, 500 ppm solution sprayed (2.5 mg/cm^2), adults on kidney bean leaves, 5 days after, 25° C.
Procedure: In styrol cups having an inner diameter of 7 cm, wet filter paper was laid, and kidney bean leaves cut to 3 cm were laid on the paper. […] The leaves were dried in air, and adults of Bemisia argentifolii were released in the cups, and the cups were covered with lids and placed in an incubator at 25° C. 5 Days after, dead insects were counted, and the mortality was calculated by using the same equation as in Test Example 1. The test was carried out in duplicate.

[6] = tested on: Nilaparvata lugens; experiment: Systemic insecticidal test on Nilaparvata lugens (rice seedling root dip); assay type: in vivo; settings: 20 ppm solution, rice seedling roots dipped 7 days, 3rd-instar larvae, 6 days after release, 25° C.
Procedure: 7 Days after, the rice seedlings were picked and put in test tubes, and in each tube, five 3rd-instar larvae of Nilaparvata lugens were released, and the tubes were capped with sponge and placed in an incubator at 25° C. 6 Days after the release of the insects, dead insects were counted, and the mortality (%) (the number of dead insects÷the number of released insects×100) was calculated. The test was carried out in duplicate.

[7] = tested on: Plutella xylostella; experiment: Soil irrigation test on Plutella xylostella; assay type: in vivo; settings: 144 h, 500 ppm solution, 10 ml soil irrigation of cabbage seedlings, leaves picked 5 days after, 3rd-instar larvae, 6 days after
Procedure: The soil around the bases of cabbage seedlings (at the 2.5-leaf stage) planted in plastic cups was irrigated with 10 ml of the solutions. After the irrigation, the cabbage seedlings were placed in a greenhouse. 5 Days after the irrigation, leaves of cabbage were picked and placed in dishes. In each dish, five 3rd-instar larvae of Plutella xylostella were released, and the dishes were covered with lids and placed in an incubator at 25° C. 6 Days after, dead insects in the dishes were counted, and the mortality was calculated by using the same equation as in Test Example 1. The test was carried out in duplicate.

[8] = tested on: Ctenocephalides felis; experiment: Test on the effect on Ctenocephalides felis (thin film in glass container); assay type: in vivo; settings: 96 h, application dose 10 μg/cm^2, adults, 4 days after release, 25° C.
[9] = tested on: Frankliniella occidentalis; experiment: Insecticidal activity on Frankliniella occidentalis (kidney bean leaf spray); assay type: in vivo; settings: 48 h, 500 ppm solution sprayed (2.5 mg/cm^2), larvae on kidney bean leaves, 2 days after
Procedure: In styrol cups having an inner diameter of 7 cm, wet filter paper was laid, kidney bean leaves cut into a 3 cm square were laid on the paper, and each leaf was inoculated with 20 larvae of Frankliniella occidentalis. […] 2.5 ml of the solutions were sprayed from a rotary spray tower into the styrol cups (2.5 mg/cm^2).
2 Days after, dead insects were counted, and insect damage on kidney bean leaves was examined. The mortality was calculated by using the same equation as in Test Example 1.
The insect damage degree was evaluated as follows. 1: 0 to 20% insect damage, 2: 20 to 50% insect damage, 3: 50 to 70% insect damage, and 4: 70% or higher insect damge. The test was carried out in duplicate.

[10] = tested on: Rhipicephalus sanguineus; experiment: Test on the effect on Rhipicephalus sanguineus (thin film in glass container); assay type: in vivo; settings: 96 h, application dose 10 μg/cm^2, protonymphs, 4 days after release, 25° C.
Procedure: 350 μl of the solutions were applied to the bottoms and the side walls of glass containers with an inner wall surface area of 35 cm^2, and acetone was volatilized to prepare thin films of the compounds on the inner walls of the glass containers. Since the inner wall surface area of each glass container was 35 cm^2, the application dose was 10 μg/cm^2.
To each glass container, five protonymphs (male and female) of Rhipiceohalus sanguineus were released, and the containers were covered with lids and placed in an incubator at 25° C. 4 Days after the release of the ticks, dead ticks were counted, and the mortality was calculated by using the same equation as in Test Example 1.

melting point [°C] | SMILES | mortality at 500 ppm [1] [%] | mortality at 500 ppm [2] [%] | mortality at 500 ppm [3] [%] | mortality at 500 ppm [4] [%] | mortality at 500 ppm [5] [%] | mortality at 20 ppm [6] [%] | pest or weed control at 500 ppm [7] [%] | mortality at 10 µg/cm2 [8] [%] | mortality at 500 ppm [9] [%] | mortality at 10 µg/cm2 [10] [%]
 | CCS(=O)(=O)c1c(-c2nc3cc(C(F)(F)F)c[n+]([O-])c3n2C)nc2cc(C(F)(F)F)ccn12 [1-14-001a, 2-[3-(ethylsulfonyl)-7-(trifluoromethyl)imidazo[1,2-a]pyridin-2-yl]-3-methyl-6-(trifluoromethyl)-3H-imidazo[4,5-b]pyridine 4-oxide] | ≥ 90 | ≥ 90 | ≥ 90 | ≥ 90 | ≥ 90 | ≥ 90 | ≥ 90 | ≥ 50 |  | 
 | CCS(=O)(=O)c1c(-c2nc3cc(C(F)(F)F)cnc3n2C)sc2ccc(C(F)(F)F)cc12 [3-1-002a, 2-[3-(ethylsulfonyl)-5-(trifluoromethyl)benzo[b]thiophen-2-yl]-3-methyl-6-(trifluoromethyl)-3H-imidazo[4,5-b]pyridine] | ≥ 90 | ≥ 90 | ≥ 90 | ≥ 90 | ≥ 90 |  |  | ≥ 50 | ≥ 50 | ≥ 50
230 to 233 | CCSc1c(-c2nc3cc(I)cnc3n2C)nc2cc(C(F)(F)F)ccn12 [1-1-026b, 2-[3-(ethylthio)-7-(trifluoromethyl)imidazo[1,2-a]pyridin-2-yl]-6-iodo-3-methyl-3H-imidazo[4,5-b]pyridine] |  |  |  |  |  |  |  |  |  | 
94 to 96 | CCCCC(CC)COC(=O)CCSc1cnc2c(c1)nc(-c1nc3cc(C(F)(F)F)ccn3c1SCC)n2C (stereo not shown) [1-1-028b, 2-ethylhexyl 3-((2-(3-(ethylthio)-7-(trifluoromethyl)imidazo[1,2-a]pyridin-2-yl)-3-methyl-3H-imidazo[4,5-b]pyridin-6-yl)thio)propanoate] |  |  |  |  |  |  |  |  |  | 
 | CCS(=O)(=O)c1c(-c2cn3cnc(C(F)(F)F)cc3n2)nc2cc(C(F)(F)F)ccn12 [1-3-001a, 2-[3-(ethylsulfonyl)-7-(trifluoromethyl)imidazo[1,2-a]pyridin-2-yl]-7-(trifluoromethyl)imidazo[1,2-c]pyrimidine] | ≥ 90 | ≥ 90 | ≥ 90 | ≥ 90 | ≥ 90 | ≥ 90 | ≥ 90 | ≥ 50 |  | 
150 to 160 | CCSc1c(-c2nc3cc(C(F)(F)F)cnc3s2)nc2cc(C(F)(F)F)ccn12 [1-13-001b, 2-[3-(ethylthio)-7-(trifluoromethyl)imidazo[1,2-a]pyridin-2-yl]-6-(trifluoromethyl)thiazolo[5,4-b]pyridine] |  |  |  |  |  |  |  |  |  | 
164 to 166 | CCSc1c(-c2nc3nc(C(F)(F)F)ccc3n2C)nc2cc(C(F)(F)F)ccn12 [1-7-001b, 2-[3-(ethylthio)-7-(trifluoromethyl)imidazo[1,2-a]pyridin-2-yl]-1-methyl-5-(trifluoromethyl)-1H-imidazo[4,5-b]pyridine] |  |  |  |  |  |  |  |  |  | 
